Results: the supplement of paper PMC10307832

How the values were obtained:
Assay in all cases: relative viability (nuclei count vs DMSO), 5 days (fraction); higher = more cells survive
HCC-44 = system: HCC-44
Outline: (§1)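 Lung cancer cell lines in 1536-well plates were dosed by pin tool the day after seeding, either with one drug alone or with a fixed anchor-drug dose plus five library-drug doses (not always all listed) in √10 steps. After 5 days, cells were fixed and their nuclei stained in one step (final 0.05% Triton X-100, 1% formaldehyde, 1 ug/ml Hoechst), then counted on 4× images. Relative viability is the nuclei count in treated wells divided by that in vehicle wells. Values are medians of duplicate plates.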

NCI-H460 = system: NCI-H460
Outline: as §1

NCI-H441 = system: NCI-H441
Outline: as §1

NCI-H1651 = system: NCI-H1651
Outline: as §1

CAL-12T = system: CAL-12T
Outline: as §1

NCI-H2085 = system: NCI-H2085
Outline: as §1

NCI-H358 = system: NCI-H358
Outline: as §1

NCI-H1975 = system: NCI-H1975
Outline: as §1

BEN = system: BEN
Outline: as §1

NCI-H838 = system: NCI-H838
Outline: as §1

NCI-H1355 = system: NCI-H1355
Outline: as §1

Compound: Clc1ccc(Nc2nnc(Cc3ccncc3)c3ccccc23)cc1 [Vatalanib] + C[C@]1(O)C[C@@H](c2nc(-c3ccc4ccc(-c5ccccc5)nc4c3)c3c(N)nccn32)C1 [Linsitinib] (partner 1 µM)
- relative viability (HCC-44; first compound 0.04 µM): 0.683
- relative viability (HCC-44; first compound 0.1265 µM): 0.643
- relative viability (HCC-44; first compound 0.4 µM): 0.676
- relative viability (HCC-44; first compound 1.265 µM): 0.636
- relative viability (HCC-44; first compound 4 µM): 0.679
- relative viability (NCI-H460; first compound 0.04 µM): 1.01
- relative viability (NCI-H460; first compound 0.1265 µM): 0.684
- relative viability (NCI-H460; first compound 0.4 µM): 0.732
- relative viability (NCI-H460; first compound 1.265 µM): 0.699
- relative viability (NCI-H460; first compound 4 µM): 0.711
- relative viability (NCI-H441; first compound 0.04 µM): 0.597
- relative viability (NCI-H441; first compound 0.1265 µM): 0.515
- relative viability (NCI-H441; first compound 0.4 µM): 0.583
- relative viability (NCI-H441; first compound 1.265 µM): 0.722
- relative viability (NCI-H441; first compound 4 µM): 0.645
- relative viability (NCI-H1651; first compound 0.04 µM): 0.971
- relative viability (NCI-H1651; first compound 0.1265 µM): 0.927
- relative viability (NCI-H1651; first compound 0.4 µM): 0.94
- relative viability (NCI-H1651; first compound 1.265 µM): 0.948
- relative viability (NCI-H1651; first compound 4 µM): 1.13
- relative viability (CAL-12T; first compound 0.04 µM): 0.826
- relative viability (CAL-12T; first compound 0.1265 µM): 0.787
- relative viability (CAL-12T; first compound 0.4 µM): 0.848
- relative viability (CAL-12T; first compound 1.265 µM): 0.755
- relative viability (CAL-12T; first compound 4 µM): 0.822
- relative viability (NCI-H2085; first compound 0.04 µM): 0.919
- relative viability (NCI-H2085; first compound 0.1265 µM): 0.974
- relative viability (NCI-H2085; first compound 0.4 µM): 1.05
- relative viability (NCI-H2085; first compound 1.265 µM): 0.846
- relative viability (NCI-H2085; first compound 4 µM): 0.886
- relative viability (NCI-H358; first compound 0.04 µM): 0.898
- relative viability (NCI-H358; first compound 0.1265 µM): 0.718
- relative viability (NCI-H358; first compound 0.4 µM): 0.917
- relative viability (NCI-H358; first compound 1.265 µM): 0.699
- relative viability (NCI-H358; first compound 4 µM): 0.578
- relative viability (NCI-H1975; first compound 0.04 µM): 0.889
- relative viability (NCI-H1975; first compound 0.1265 µM): 0.92
- relative viability (NCI-H1975; first compound 0.4 µM): 1.1
- relative viability (NCI-H1975; first compound 1.265 µM): 0.834
- relative viability (NCI-H1975; first compound 4 µM): 0.86
- relative viability (BEN; first compound 0.04 µM): 0.992
- relative viability (BEN; first compound 0.1265 µM): 0.785
- relative viability (BEN; first compound 0.4 µM): 0.99
- relative viability (BEN; first compound 1.265 µM): 0.943
- relative viability (BEN; first compound 4 µM): 0.97
- relative viability (NCI-H838; first compound 0.04 µM): 1.01
- relative viability (NCI-H838; first compound 0.1265 µM): 0.994
- relative viability (NCI-H838; first compound 0.4 µM): 1.15
- relative viability (NCI-H838; first compound 1.265 µM): 0.932
- relative viability (NCI-H838; first compound 4 µM): 0.976
- relative viability (NCI-H1355; first compound 0.04 µM): 0.87
- relative viability (NCI-H1355; first compound 0.1265 µM): 0.818
- relative viability (NCI-H1355; first compound 0.4 µM): 0.915
- relative viability (NCI-H1355; first compound 1.265 µM): 0.772
- relative viability (NCI-H1355; first compound 4 µM): 0.763
